Reference: US9896441B2 (Lycera Corporation, priority 2014, dated 2018)

Assays:
Gal4-RORγ-LBD = target: T1, Gal4-RORγ-LBD (Homo sapiens, UniProt P51449); assay: Gal4-RORγ Luciferase Reporter Assay in HEK-293T Cells; type: cell-based; details: HEK-293 cells, luciferase reporter; for Gal4-RORγ Assay Max Response: maximum response
T1 construct: expressed in transfected cells
T1 sequence (P51449 269-508 limits assumed): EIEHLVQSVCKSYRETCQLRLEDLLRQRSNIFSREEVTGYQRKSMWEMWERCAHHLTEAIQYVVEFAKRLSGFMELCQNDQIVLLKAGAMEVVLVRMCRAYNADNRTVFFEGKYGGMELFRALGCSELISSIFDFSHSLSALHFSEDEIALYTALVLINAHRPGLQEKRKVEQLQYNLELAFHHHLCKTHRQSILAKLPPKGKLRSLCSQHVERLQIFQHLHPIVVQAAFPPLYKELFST
In short: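 Max Response was taken as the upper plateau of a 4-parameter logistic fit of luciferase signal, normalized to 100 for wells without ursolic acid or compound. Transiently Gal4-RORγ-LBD/Gal4-luc transfected HEK-293 cells carrying […] ursolic acid were incubated with test compounds (0.2% DMSO) overnight at 37 °C and read with One-Glo.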

RORγ-LBD = target: T2, RORγ-LBD (Homo sapiens, UniProt P51449); assay: RORγ-Ligand Binding Domain (LBD) TR-FRET Assay; type: biochemical; details: for TR-FRET Assay Max Response: maximum response;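 on TR-FRET Assay Max Response: 665/615 nm signal ratio set to 100 without ursolic acid or test compound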
T2 construct: made in house; host or cells: SF9 cells (baculovirus); used as diluted lysate
T2 sequence (P51449 269-508 limits assumed): T1 sequence (P51449 269-508 limits assumed)
In short: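 Compounds, diluted in DMSO and then in assay buffer (1% DMSO final), were combined with His-tagged RORγ-LBD lysate at roughly 3 nM final and a 200 nM biotinylated SRC1 LXXLL peptide. Ursolic acid was included at 2 μM final. Coactivator recruitment was detected by TR-FRET.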

`C/C(=C\c1ccc2c(c1)N(S(=O)(=O)c1cccc(C(F)(F)F)c1)C[C@H](CCC(=O)N1CCC[C@H]1C(=O)O)O2)c1c(F)cccc1Cl` [Example 129J, (3-((S)-6-((E)-2-(2-chloro-6-fluorophenyl)prop-1-en-1-yl)-4-((3-(trifluoromethyl)phenyl)sulfonyl)-3,4-dihydro-2H-benzo[b][1,4]oxazin-2-yl)propanoyl)-L-proline] was tested, and the EC50 (Gal4-RORγ-LBD; in presence of ursolic acid) was 500 to 5000 nM, the “Gal4-RORγ Assay Max Response” value (Gal4-RORγ-LBD; in presence of ursolic acid) was “*** (a value in the range of greater than 150 to 200)” and the EC50 (RORγ-LBD; RORγ-LBD TR-FRET assay) was < 500 nM. The “TR-FRET Assay Max Response” value (RORγ-LBD; RORγ-LBD TR-FRET assay) was “**** (a value greater than 200)”.

`Cc1nn(C)c2ncc(S(=O)(=O)N3C[C@H](CCC(=O)O)Oc4ccc(/C=C/c5c(F)cccc5Cl)cc43)cc12` [Example 89DX, (S,E)-3-(6-(2-chloro-6-fluorostyryl)-4-((1,3-dimethyl-1H-pyrazolo[3,4-b]pyridin-5-yl)sulfonyl)-3,4-dihydro-2H-benzo[b][1,4]oxazin-2-yl)propanoic acid] was tested, and the EC50 (Gal4-RORγ-LBD; with ursolic acid) was > 10000 nM and the EC50 (RORγ-LBD; RORγ-LBD TR-FRET) was 500 to 5000 nM.

For `C/C(=C\c1ccc2c(c1)N(S(=O)(=O)c1cccc(C(F)(F)F)c1)C[C@H](OC(C)(C)C(=O)O)C2)c1c(F)cccc1Cl` [Example 173F, (R,E)-2-((7-(2-(2-chloro-6-fluorophenyl)prop-1-en-1-yl)-1-((3-(trifluoromethyl)phenyl)-sulfonyl)-1,2,3,4-tetrahydroquinolin-3-yl)oxy)-2-methylpropanoic acid], the EC50 (Gal4-RORγ-LBD; in presence of ursolic acid) was < 500 nM, the “Gal4-RORγ Assay Max Response” value (Gal4-RORγ-LBD; in presence of ursolic acid) was “** (a value in the range of greater than 90 to 150)” and the EC50 (RORγ-LBD; RORγ-LBD TR-FRET assay) was < 500 nM. The “TR-FRET Assay Max Response” value (RORγ-LBD; RORγ-LBD TR-FRET assay) was “*** (a value in the range of greater than 150 to 200)”.

`C/C(=C\c1ccc2c(c1)N(S(=O)(=O)c1ccc(C)c(C(F)(F)F)c1)C[C@H](CCC(=O)O)O2)c1c(F)cccc1Cl` [Example 86AO, (S,E)-3-(6-(2-(2-chloro-6-fluorophenyl)prop-1-en-1-yl)-4-((4-methyl-3-(trifluoromethyl)-phenyl)sulfonyl)-3,4-dihydro-2H-benzo[b][1,4]oxazin-2-yl)propanoic acid] was tested, and the EC50 (Gal4-RORγ-LBD; with ursolic acid) was < 500 nM and the EC50 (RORγ-LBD; RORγ-LBD TR-FRET) was < 500 nM.

With `COC(=O)CC[C@H]1CN(S(=O)(=O)c2cncc(C(F)(F)F)c2)c2cc(/C=C(\C)c3c(F)cccc3Cl)ccc2O1` [Example 74, Methyl (S,E)-3-(6-(2-(2-chloro-6-fluorophenyl)prop-1-en-1-yl)-4-((5-(trifluoromethyl)pyridin-3-yl)sulfonyl)-3,4-dihydro-2H-benzo[b][1,4]oxazin-2-yl)propanoate] the EC50 (Gal4-RORγ-LBD; with ursolic acid) was 500 to 5000 nM and the EC50 (RORγ-LBD; RORγ-LBD TR-FRET) was < 500 nM.

With `C/C(=C\c1ccc2c(c1)N(S(=O)(=O)c1cccc(C(F)(F)F)c1)C[C@H]([C@@H](C)NS(C)(=O)=O)O2)c1c(F)cccc1Cl` [Example 105, N—((R)-1-((R)-6-((E)-2-(2-Chloro-6-fluorophenyl)prop-1-en-1-yl)-4-((3-(trifluoromethyl)phenyl)sulfonyl)-3,4-dihydro-2H-benzo[b][1,4]oxazin-2-yl)ethyl)methanesulfonamide] the EC50 (Gal4-RORγ-LBD; in presence of ursolic acid) was < 500 nM, the “Gal4-RORγ Assay Max Response” value (Gal4-RORγ-LBD; in presence of ursolic acid) was “** (a value in the range of greater than 90 to 150)” and the EC50 (RORγ-LBD; RORγ-LBD TR-FRET assay) was < 500 nM. For the same compound, the “TR-FRET Assay Max Response” value (RORγ-LBD; RORγ-LBD TR-FRET assay) was “** (a value in the range of greater than 90 to 150)”.

With `C/C(=C\c1ccc2c(c1)N(S(=O)(=O)c1ccc(F)c(C(F)(F)F)c1)C[C@H](CCC(=O)O)O2)c1c(F)cccc1Cl` [Example 86A, (S,E)-3-(6-(2-(2-chloro-6-fluorophenyl)prop-1-en-1-yl)-4-((4-fluoro-3-(trifluoromethyl)-phenyl)sulfonyl)-3,4-dihydro-2H-benzo[b][1,4]oxazin-2-yl)-propanoic acid] the EC50 (Gal4-RORγ-LBD; with ursolic acid) was 500 to 5000 nM and the EC50 (RORγ-LBD; RORγ-LBD TR-FRET) was < 500 nM.

With `CCOc1ncc(C(F)(F)F)cc1S(=O)(=O)N1C[C@H](CCC(=O)O)Oc2ccc(/C=C/c3c(Cl)cccc3C(F)F)cc21` [Example 89EJ, (S,E)-3-(6-(2-chloro-6-(difluoromethyl)styryl)-4-((2-ethoxy-5-(trifluoromethyl)-pyridin-3-yl)sulfonyl)-3,4-dihydro-2H-benzo[b][1,4]-oxazin-2-yl)propanoic acid] the EC50 (Gal4-RORγ-LBD; with ursolic acid) was < 500 nM and the EC50 (RORγ-LBD; RORγ-LBD TR-FRET) was < 500 nM.

In the case of `O=C(O)C1CCN(C(=O)CC[C@H]2CN(S(=O)(=O)c3cccc(C(F)(F)F)c3)c3cc(/C=C/c4c(F)cccc4Cl)ccc3O2)CC1` [Example 129O, (S,E)-1-(3-(6-(2-chloro-6-fluorostyryl)-4-((3-(trifluoromethyl)phenyl)sulfonyl)-3,4-dihydro-2H-benzo[b][1,4]oxazin-2-yl)propanoyl)piperidine-4-carboxylic acid], the EC50 (Gal4-RORγ-LBD; in presence of ursolic acid) is reported as < 500 nM, the “Gal4-RORγ Assay Max Response” value (Gal4-RORγ-LBD; in presence of ursolic acid) is reported as “** (a value in the range of greater than 90 to 150)” and the EC50 (RORγ-LBD; RORγ-LBD TR-FRET assay) is reported as < 500 nM. For the same compound, the “TR-FRET Assay Max Response” value (RORγ-LBD; RORγ-LBD TR-FRET assay) was “*** (a value in the range of greater than 150 to 200)”.
